{"source": "patent US6914045B2", "about": "“Glycopeptide antibiotics” (Wyeth Holdings Corporation, priority 2001, dated 2005)", "key": {"Staphylococcus sp.": {"system": "Staphylococcus sp.", "experiment": "in vitro antibacterial evaluation, MIC by broth dilution", "assay_type": "cell-based", "conditions": "broth dilution, 18 hours at 35° C.; for MIC Staphylococcus aureus (GC 1131): strain GC 1131", "method_in_brief": "(§1)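 Inoculum 5×10^5 CFU/mL; concentrations 64 to 0.06 μg/mL; MIC defined as lowest inhibitory level. Conducted by broth dilution under NCCLS guidelines.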"}, "Escherichia coli": {"system": "Escherichia coli", "experiment": "in vitro antibacterial evaluation, MIC by broth dilution", "assay_type": "cell-based", "method_in_brief": "as §1"}, "Enterococcus sp.": {"system": "Enterococcus sp.", "experiment": "in vitro antibacterial evaluation, MIC by broth dilution", "assay_type": "cell-based", "conditions": "broth dilution, 18 hours at 35° C.; for MIC Enterococcus faecalis (ATCC 29212): strain ATCC 29212; for MIC Enterococcus faecalis (GC 2242): strain GC 2242; for MIC Enterococcus faecium (GC 2243): strain GC 2243; for MIC Enterococcus faecalis (GC 2691): strain GC 2691; for MIC Enterococcus faecalis (GC 3059): strain GC 3059; for MIC Enterococcus faecalis (GC 4552): strain GC 4552; for MIC Enterococcus faecalis (GC 4553): strain GC 4553; for MIC Enterococcus faecalis (GC 4554): strain GC 4554; for MIC Enterococcus faecium (GC 4556): strain GC 4556; for MIC Enterococcus faecium (GC 4557): strain GC 4557; for MIC Enterococcus avium (GC 4558): strain GC 4558; for MIC Enterococcus faecalis (GC 6189): strain GC 6189", "method_in_brief": "as §1"}, "Streptococcus sp.": {"system": "Streptococcus sp.", "experiment": "in vitro antibacterial evaluation, MIC by broth dilution", "assay_type": "cell-based", "conditions": "broth dilution, 18 hours at 35° C.; for MIC Streptococcus pneumoniae (ATCC 6301): strain ATCC 6301; for MIC Streptococcus pneumoniae (GC 1894): strain GC 1894; for MIC Streptococcus pyogenes (GC 4563): strain GC 4563; for MIC Streptococcus agalactiae (GC 4564): strain GC 4564; for MIC Streptococcus pneumoniae (GC 4565): strain GC 4565", "method_in_brief": "as §1"}, "[1]": {"system": "Staphylococcus aureus-SMITH (GC 4543)", "experiment": "acute lethal infection in mice", "assay_type": "in vivo", "conditions": "acute lethal infection, female CD-1 mice, intraperitoneal challenge, intravenous 30 min. after infection, 7 day survival", "protocol": "Methods for in Vivo Antibacterial Evaluation\nThe therapeutic effects of glycopeptide antibiotics of Formula I are determined against acute lethal infections with S. aureus (strain Smith), a penicillin resistant strain of S. pneumoniae (strain GC 1894), and a vancomycin resistant strain of E. fecalis (strain GC 6189 and GC 2246). Female mice, CD-1 (Charles River Laboratories), 20+/−2 gm, are challenged by intraperitoneal injection of sufficient bacteria (suspended in /trypticase Soy Broth or hog gastric mucin) to kill non-treated controls within 24-48 hr. Antibacterial agents, contained in 0.2 mL of saline or 5% dextrose solution, are administered intravenously 30 min. after infection. Five mice are treated at each dose level. The 7 day survival ratios from 3 separate tests are pooled for calculation of median effective dose (ED50)."}}}
{"smiles": "COc1ccc(Oc2cccc(C3OCC4OC(OC5C(CO)OC(Oc6ccc(CC7NC(=O)C(C(C)c8ccccc8)NC(=O)CNC(=O)C(CO)NC(=O)C(C(O)C8CNC(=N)N8C8OC(CO)C(O)C(O)C8O)NC(=O)C(C(O)C8CNC(=N)N8)NC7=O)cc6)C(O)C5O)C(O)C(O)C4O3)c2)cc1", "note": "(stereo not drawn) [Example 180, Cyclo[glycyl-β-methylphenylalanyl-O-[4-O-[4,6-O-[3-(4-methoxyphenoxy)benzylidene]hexopyranosyl]hexopyranosyl]tyrosyl-3-(2-iminoimidazolidin-4-yl)seryl-3-(3-hexopyranosyl-2-iminoimidazolidin-4-yl)serylseryl]]", "values": [{"measurement": "MIC Staphylococcus aureus (GC 1131)", "setting": "Staphylococcus sp.; inoculum 5×10^5 CFU/mL", "value": 2, "unit": "µg/mL"}, {"measurement": "MIC Staphylococcus aureus (ATCC 29213)", "setting": "Staphylococcus sp.; strain ATCC 29213", "value": 2, "unit": "µg/mL"}, {"measurement": "MIC Staphylococcus aureus (GC 1131)", "setting": "Staphylococcus sp.", "value": 2, "unit": "µg/mL"}, {"measurement": "MIC Staphylococcus aureus (GC 3051)", "setting": "Staphylococcus sp.; strain GC 3051", "value": 1, "unit": "µg/mL"}, {"measurement": "MIC Staphylococcus aureus (GC 3053)", "setting": "Staphylococcus sp.; strain GC 3053", "value": 2, "unit": "µg/mL"}, {"measurement": "MIC Staphylococcus aureus (GC 4541)", "setting": "Staphylococcus sp.; strain GC 4541", "value": 2, "unit": "µg/mL"}, {"measurement": "MIC Staphylococcus aureus (GC 4542)", "setting": "Staphylococcus sp.; strain GC 4542", "value": 2, "unit": "µg/mL"}, {"measurement": "MIC Staphylococcus aureus (GC 4544)", "setting": "Staphylococcus sp.; strain GC 4544", "value": 2, "unit": "µg/mL"}, {"measurement": "MIC Staphylococcus aureus (GC 4545)", "setting": "Staphylococcus sp.; strain GC 4545", "value": 2, "unit": "µg/mL"}, {"measurement": "MIC Staphylococcus aureus-SMITH (GC 4543)", "setting": "Staphylococcus sp.; strain GC 4543", "value": 2, "unit": "µg/mL"}, {"measurement": "MIC Staphylococcus haemolyticus (GC 4546)", "setting": "Staphylococcus sp.; strain GC 4546", "value": 2, "unit": "µg/mL"}, {"measurement": "MIC Coagulase Negative Staphylococcus (GC 4547)", "setting": "Staphylococcus sp.; strain GC 4547", "value": 2, "unit": "µg/mL"}, {"measurement": "MIC Coagulase Negative Staphylococcus (GC 4548)", "setting": "Staphylococcus sp.; strain GC 4548", "value": 1, "unit": "µg/mL"}, {"measurement": "MIC Coagulase Negative Staphylococcus (GC 4549)", "setting": "Staphylococcus sp.; strain GC 4549", "value": 1, "unit": "µg/mL"}, {"measurement": "MIC Coagulase Negative Staphylococcus (GC 4551)", "setting": "Staphylococcus sp.; strain GC 4551", "value": 1, "unit": "µg/mL"}, {"measurement": "MIC Coagulase Negative Staphylococcus (GC 6257)", "setting": "Staphylococcus sp.; strain GC 6257", "value": 0.5, "unit": "µg/mL"}, {"measurement": "MIC Escherichia coli (ATCC 25922)", "setting": "Escherichia coli; strain ATCC 25922, 18 hours at 35° C.", "value": ">64", "unit": "µg/mL"}, {"measurement": "MIC Escherichia coli (GC 4559)", "setting": "Escherichia coli; strain GC 4559, 18 hours at 35° C.", "value": 64, "unit": "µg/mL"}, {"measurement": "MIC Escherichia coli (GC 4560)", "setting": "Escherichia coli; strain GC 4560, 18 hours at 35° C.", "value": 2, "unit": "µg/mL"}, {"measurement": "MIC Enterococcus faecalis (ATCC 29212)", "setting": "Enterococcus sp.; inoculum 5×10^5 CFU/mL", "value": 4, "unit": "µg/mL"}, {"measurement": "MIC Enterococcus faecalis (GC 2242)", "setting": "Enterococcus sp.; inoculum 5×10^5 CFU/mL", "value": 4, "unit": "µg/mL"}, {"measurement": "MIC Enterococcus faecium (GC 2243)", "setting": "Enterococcus sp.; inoculum 5×10^5 CFU/mL", "value": 2, "unit": "µg/mL"}, {"measurement": "MIC Enterococcus faecalis (GC 2691)", "setting": "Enterococcus sp.; inoculum 5×10^5 CFU/mL", "value": 2, "unit": "µg/mL"}, {"measurement": "MIC Enterococcus faecalis (GC 3059)", "setting": "Enterococcus sp.; inoculum 5×10^5 CFU/mL", "value": 2, "unit": "µg/mL"}, {"measurement": "MIC Enterococcus faecalis (GC 4552)", "setting": "Enterococcus sp.; inoculum 5×10^5 CFU/mL", "value": 2, "unit": "µg/mL"}, {"measurement": "MIC Enterococcus faecalis (GC 4553)", "setting": "Enterococcus sp.; inoculum 5×10^5 CFU/mL", "value": 2, "unit": "µg/mL"}, {"measurement": "MIC Enterococcus faecalis (GC 4554)", "setting": "Enterococcus sp.; inoculum 5×10^5 CFU/mL", "value": 2, "unit": "µg/mL"}, {"measurement": "MIC Enterococcus faecium (GC 4556)", "setting": "Enterococcus sp.; inoculum 5×10^5 CFU/mL", "value": 2, "unit": "µg/mL"}, {"measurement": "MIC Enterococcus faecium (GC 4557)", "setting": "Enterococcus sp.; inoculum 5×10^5 CFU/mL", "value": 2, "unit": "µg/mL"}, {"measurement": "MIC Enterococcus avium (GC 4558)", "setting": "Enterococcus sp.; inoculum 5×10^5 CFU/mL", "value": 2, "unit": "µg/mL"}, {"measurement": "MIC Enterococcus faecalis (GC 6189)", "setting": "Enterococcus sp.; inoculum 5×10^5 CFU/mL", "value": 2, "unit": "µg/mL"}, {"measurement": "MIC Enterococcus faecalis (ATCC 29212)", "setting": "Enterococcus sp.", "value": 4, "unit": "µg/mL"}, {"measurement": "MIC Enterococcus faecalis (GC 2242)", "setting": "Enterococcus sp.", "value": 4, "unit": "µg/mL"}, {"measurement": "MIC Enterococcus faecium (GC 2243)", "setting": "Enterococcus sp.", "value": 2, "unit": "µg/mL"}, {"measurement": "MIC Enterococcus faecalis (GC 2691)", "setting": "Enterococcus sp.", "value": 2, "unit": "µg/mL"}, {"measurement": "MIC Enterococcus faecalis (GC 3059)", "setting": "Enterococcus sp.", "value": 2, "unit": "µg/mL"}, {"measurement": "MIC Enterococcus faecalis (GC 4552)", "setting": "Enterococcus sp.", "value": 2, "unit": "µg/mL"}, {"measurement": "MIC Enterococcus faecalis (GC 4553)", "setting": "Enterococcus sp.", "value": 2, "unit": "µg/mL"}, {"measurement": "MIC Enterococcus faecalis (GC 4554)", "setting": "Enterococcus sp.", "value": 2, "unit": "µg/mL"}, {"measurement": "MIC Enterococcus faecium (GC 4556)", "setting": "Enterococcus sp.", "value": 2, "unit": "µg/mL"}, {"measurement": "MIC Enterococcus faecium (GC 4557)", "setting": "Enterococcus sp.", "value": 2, "unit": "µg/mL"}, {"measurement": "MIC Enterococcus avium (GC 4558)", "setting": "Enterococcus sp.", "value": 2, "unit": "µg/mL"}, {"measurement": "MIC Enterococcus faecalis (GC 6189)", "setting": "Enterococcus sp.", "value": 2, "unit": "µg/mL"}, {"measurement": "MIC Streptococcus pneumoniae (ATCC 6301)", "setting": "Streptococcus sp.; inoculum 5×10^5 CFU/mL", "value": "<0.06", "unit": "µg/mL"}, {"measurement": "MIC Streptococcus pneumoniae (GC 1894)", "setting": "Streptococcus sp.; inoculum 5×10^5 CFU/mL", "value": "<0.06", "unit": "µg/mL"}, {"measurement": "MIC Streptococcus pyogenes (GC 4563)", "setting": "Streptococcus sp.; inoculum 5×10^5 CFU/mL", "value": "<0.06", "unit": "µg/mL"}, {"measurement": "MIC Streptococcus agalactiae (GC 4564)", "setting": "Streptococcus sp.; inoculum 5×10^5 CFU/mL", "value": "<0.06", "unit": "µg/mL"}, {"measurement": "MIC Streptococcus pneumoniae (GC 4565)", "setting": "Streptococcus sp.; inoculum 5×10^5 CFU/mL", "value": "<0.06", "unit": "µg/mL"}, {"measurement": "MIC Streptococcus pneumoniae (ATCC 6301)", "setting": "Streptococcus sp.", "value": "<0.06", "unit": "µg/mL"}, {"measurement": "MIC Streptococcus pneumoniae (GC 1894)", "setting": "Streptococcus sp.", "value": "<0.06", "unit": "µg/mL"}, {"measurement": "MIC Streptococcus pyogenes (GC 4563)", "setting": "Streptococcus sp.", "value": "<0.06", "unit": "µg/mL"}, {"measurement": "MIC Streptococcus agalactiae (GC 4564)", "setting": "Streptococcus sp.", "value": "<0.06", "unit": "µg/mL"}, {"measurement": "MIC Streptococcus pneumoniae (GC 4565)", "setting": "Streptococcus sp.", "value": "<0.06", "unit": "µg/mL"}, {"measurement": "median effective dose (ED50), Staphylococcus aureus-SMITH (GC 4543)", "setting": "[1]", "value": 0.05, "unit": "mg/kg"}]}
